pEC50: −log10 of the molar value.

Drawing on patent US11066369B2, “N-(pyridin-2-yl)pyridine-sulfonamide derivatives and their use in the treatment of disease” (Novartis AG, priority 2016, dated 2021), this text covers EC50 and Emax for 25 compounds.

This assay has as its target T1, horseradish peroxidase (HRP) tagged delF508-CFTR (Homo sapiens, UniProt P13569, DEL508-508).
T1 construct: expressed in transfected cells
Description: Measurement of delF508-CFTR-HRP surface expression in CFBE41o- cells.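 As to DelF508-CFTR-HRP Amax %: percent efficacy relative to reference corrector lumacaftor.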 It counts as cell-based. The following applies: CFBE41o- cells; for pEC50: mean of at least two replicates, read-out: DelF508-CFTR-HRP EC50; for Emax: surface expression Amax, read-out: DelF508-CFTR-HRP Amax %. In outline: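 Surface-trafficked delF508-CFTR detected via extracellular HRP tag, read as luminescence from a membrane-impermeant substrate in CFBE41o- cells. Cells pre-induced 48h with 500 ng/mL doxycycline, then exposed 24h at 37° C to a 10-point, 3-fold dilution series from 10 μM (DMSO ≤0.5%). Triplicate dose-responses fitted logistically for EC50 after per-plate normalization; fold change versus reference compound.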

T1 sequence (P13569 with tags, fused parts or gaps DEL508-508): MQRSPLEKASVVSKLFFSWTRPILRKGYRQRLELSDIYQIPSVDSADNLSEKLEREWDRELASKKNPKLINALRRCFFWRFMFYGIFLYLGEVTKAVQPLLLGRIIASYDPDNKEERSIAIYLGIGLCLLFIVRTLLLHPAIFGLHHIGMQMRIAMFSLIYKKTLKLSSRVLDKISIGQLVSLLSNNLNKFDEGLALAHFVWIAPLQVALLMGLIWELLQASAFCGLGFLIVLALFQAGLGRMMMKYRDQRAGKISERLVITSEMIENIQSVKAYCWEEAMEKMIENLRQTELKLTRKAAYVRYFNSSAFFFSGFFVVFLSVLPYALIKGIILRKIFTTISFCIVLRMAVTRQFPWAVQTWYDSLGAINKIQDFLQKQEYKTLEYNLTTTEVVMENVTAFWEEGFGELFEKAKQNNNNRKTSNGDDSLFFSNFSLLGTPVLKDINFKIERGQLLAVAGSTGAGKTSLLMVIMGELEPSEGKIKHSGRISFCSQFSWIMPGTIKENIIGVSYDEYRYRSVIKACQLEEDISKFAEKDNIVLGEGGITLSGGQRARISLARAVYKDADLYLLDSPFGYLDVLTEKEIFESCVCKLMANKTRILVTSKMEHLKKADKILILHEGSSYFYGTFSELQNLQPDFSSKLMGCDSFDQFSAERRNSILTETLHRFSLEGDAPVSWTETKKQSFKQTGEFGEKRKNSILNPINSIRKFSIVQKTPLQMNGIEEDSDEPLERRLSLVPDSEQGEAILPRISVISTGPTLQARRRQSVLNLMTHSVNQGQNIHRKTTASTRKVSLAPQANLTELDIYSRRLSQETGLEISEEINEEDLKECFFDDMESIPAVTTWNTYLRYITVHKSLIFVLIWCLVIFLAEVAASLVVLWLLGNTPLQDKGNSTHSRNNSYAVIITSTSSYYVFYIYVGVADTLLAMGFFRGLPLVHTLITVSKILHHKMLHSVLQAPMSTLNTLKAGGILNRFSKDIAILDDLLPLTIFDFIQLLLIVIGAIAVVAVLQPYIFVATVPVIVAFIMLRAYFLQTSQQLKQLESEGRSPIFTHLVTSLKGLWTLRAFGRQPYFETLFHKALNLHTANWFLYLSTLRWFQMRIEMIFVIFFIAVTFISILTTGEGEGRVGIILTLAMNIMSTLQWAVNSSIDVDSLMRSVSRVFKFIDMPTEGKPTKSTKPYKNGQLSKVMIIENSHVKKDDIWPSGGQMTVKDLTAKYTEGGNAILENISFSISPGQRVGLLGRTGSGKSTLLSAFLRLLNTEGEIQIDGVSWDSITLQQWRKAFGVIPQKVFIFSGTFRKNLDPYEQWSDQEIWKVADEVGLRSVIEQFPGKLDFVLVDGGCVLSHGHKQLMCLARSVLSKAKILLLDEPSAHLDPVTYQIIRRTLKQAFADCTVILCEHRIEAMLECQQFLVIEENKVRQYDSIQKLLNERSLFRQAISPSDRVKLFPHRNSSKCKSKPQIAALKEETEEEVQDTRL

On to `C[C@@]1(C(=O)O)CCCN(c2cccc(S(=O)(=O)Nc3ccc(C(F)(F)F)c(-c4ccccc4Cl)n3)n2)C1` [Example 421, (R)-1-(6-(N-(6-(2-chlorophenyl)-5-(trifluoromethyl)pyridin-2-yl)sulfamoyl)pyridin-2-yl)-3-methylpiperidine-3-carboxylic Acid], for which the pEC50 (as a rule, the EC50 on a negative log10 scale, so that one unit is a factor of ten) was 5.69.
For the compound `CC(C)COc1ccccc1-c1nc(NS(=O)(=O)c2cccc(N3CCC[C@@](C)(C(=O)O)C3)n2)ccc1Cl` [Example 422, (R)-1-(6-(N-(5-chloro-6-(2-isobutoxyphenyl)pyridin-2-yl)sulfamoyl)pyridin-2-yl)-3-methylpiperidine-3-carboxylic Acid], the negative logarithm of the EC50 (pEC50) is 5.86 and the Emax is 905%.
For `CCCc1ccccc1-c1nc(NS(=O)(=O)c2cccc(N3CCC[C@@](C)(C(=O)O)C3)n2)ccc1C(F)(F)F` [Example 423, (R)-3-methyl-1-(6-(N-(6-(2-propylphenyl)-5-(trifluoromethyl)pyridin-2-yl)sulfamoyl)pyridin-2-yl)piperidine-3-carboxylic Acid], the pEC50 was 6.12.
Same read-out and setting: for `COc1ccc(Cl)c(-c2nc(NS(=O)(=O)c3cccc(N4CCC[C@@](C)(C(=O)O)C4)n3)ccc2C(F)(F)F)c1` [Example 424, (R)-1-(6-(N-(6-(2-chloro-5-methoxyphenyl)-5-(trifluoromethyl)pyridin-2-yl)sulfamoyl)pyridin-2-yl)-3-methylpiperidine-3-carboxylic Acid] the value was 5.69; for `CCCc1ccccc1-c1nc(NS(=O)(=O)c2cccc(N3CCC[C@](C)(C(=O)O)C3)n2)ccc1C(F)(F)F` [Example 425, (S)-3-methyl-1-(6-(N-(6-(2-propylphenyl)-5-(trifluoromethyl)pyridin-2-yl)sulfamoyl)pyridin-2-yl)piperidine-3-carboxylic Acid], 5.91.
Turning to `COc1ccc(Cl)cc1-c1nc(NS(=O)(=O)c2cccc(N3CCC(C)(C(=O)O)CC3)n2)ccc1C(F)(F)F` [Example 426, 1-(6-(N-(6-(5-chloro-2-methoxyphenyl)-5-(trifluoromethyl)pyridin-2-yl)sulfamoyl)pyridin-2-yl)-4-methylpiperidine-4-carboxylic Acid], the pEC50 was 5.64 and the Emax was 287%.
For `CC(C)Oc1ccc(Cl)cc1-c1nc(NS(=O)(=O)c2cccc(N3CCC(C)(C(=O)O)CC3)n2)ccc1C(F)(F)F` [Example 427, 1-(6-(N-(6-(5-chloro-2-isopropoxyphenyl)-5-(trifluoromethyl)pyridin-2-yl)sulfamoyl)pyridin-2-yl)-4-methylpiperidine-4-carboxylic Acid] the same measures were 6.20 and 282%.
On to `Cc1ccccc1-c1nc(NS(=O)(=O)c2cccc(N3CCC[C@](C)(C(=O)O)C3)n2)ccc1C(F)(F)F` [Example 428, (3S)-3-methyl-1-(6-{[6-(2-methylphenyl)-5-(trifluoromethyl)pyridin-2-yl]sulfamoyl}pyridin-2-yl)piperidine-3-carboxylic Acid], for which the negative-log EC50 (pEC50) is 5.77 and the Emax amounted to 713%.
For `C[C@]1(C(=O)O)CCCN(c2cccc(S(=O)(=O)Nc3ccc(C(F)(F)F)c(-c4ccccc4C4CC4)n3)n2)C1` [Example 429, (S)-1-(6-(N-(6-(2-cyclopropylphenyl)-5-(trifluoromethyl)pyridin-2-yl)sulfamoyl)pyridin-2-yl)-3-methylpiperidine-3-carboxylic Acid], the pEC50 was 6.08 and the Emax stood at 541%.
On the same counts, the results for `CC1(C(=O)O)CCN(c2cccc(S(=O)(=O)Nc3ccc(Cl)c(-c4ccccc4C4CC4)n3)n2)CC1` [Example 430, 1-(6-(N-(5-chloro-6-(2-cyclopropylphenyl)pyridin-2-yl)sulfamoyl)pyridin-2-yl)-4-methylpiperidine-4-carboxylic Acid] are 5.77 and 370%.
For `CC1(C(=O)O)CCCN(c2cccc(S(=O)(=O)Nc3ccc(Cl)c(-c4ccccc4C4CC4)n3)n2)C1` (stereo not shown) [Example 431, 1-(6-(N-(5-chloro-6-(2-cyclopropylphenyl)pyridin-2-yl)sulfamoyl)pyridin-2-yl)-3-methylpiperidine-3-carboxylic Acid] the same measures were 5.76 and 763%.
For `COc1ccc(Cl)cc1-c1nc(NS(=O)(=O)c2cccc(N3CCCC(C)(C(=O)O)C3)n2)ccc1C(F)(F)F` (stereo not shown) [Example 432, 1-(6-(N-(6-(5-chloro-2-methoxyphenyl)-5-(trifluoromethyl)pyridin-2-yl)sulfamoyl)pyridin-2-yl)-3-methylpiperidine-3-carboxylic Acid] the same measures were 5.72 and 596%.
Turning to `CC(C)Oc1ccc(Cl)cc1-c1nc(NS(=O)(=O)c2cccc(N3CCCC(C)(C(=O)O)C3)n2)ccc1C(F)(F)F` (stereo not shown) [Example 433, 1-(6-(N-(6-(5-chloro-2-isopropoxyphenyl)-5-(trifluoromethyl)pyridin-2-yl)sulfamoyl)pyridin-2-yl)-3-methylpiperidine-3-carboxylic Acid], the pEC50 is 6.36 and the Emax was 571%.
On the same counts, the results for `Cc1ccc(F)cc1-c1nc(NS(=O)(=O)c2cccc(N3CCC[C@](C)(C(=O)O)C3)n2)ccc1C(F)(F)F` [Example 435, (3S)-1-(6-{[6-(5-fluoro-2-methylphenyl)-5-(trifluoromethyl)pyridin-2-yl]sulfamoyl}pyridin-2-yl)-3-methylpiperidine-3-carboxylic Acid] are 5.64 and 714%.
On the same counts, the results for `Cc1c(F)cccc1-c1nc(NS(=O)(=O)c2cccc(N3CCC[C@](C)(C(=O)O)C3)n2)ccc1C(F)(F)F` [Example 436, (3S)-1-(6-{[6-(3-fluoro-2-methylphenyl)-5-(trifluoromethyl)pyridin-2-yl]sulfamoyl}pyridin-2-yl)-3-methylpiperidine-3-carboxylic Acid] are 5.75 and 438%.
On the same counts, the results for `C[C@@]1(C(=O)O)CCCN(c2cccc(S(=O)(=O)Nc3ccc(Cl)c(-c4ccccc4C4CC4)n3)n2)C1` [Example 437, (R)-1-(6-(N-(5-chloro-6-(2-cyclopropylphenyl)pyridin-2-yl)sulfamoyl)pyridin-2-yl)-3-methylpiperidine-3-carboxylic Acid] are 5.81 and 869%.
For `Cc1ccc(F)cc1-c1nc(NS(=O)(=O)c2cccc(N3CCCC4(CC4C(=O)O)C3)n2)ccc1C(F)(F)F` (stereo not shown) [Example 439, 5-(6-(N-(6-(5-fluoro-2-methylphenyl)-5-(trifluoromethyl)pyridin-2-yl)sulfamoyl)pyridin-2-yl)-5-azaspiro[2.5]octane-1-carboxylic Acid], the pEC50 is 5.65 and the Emax was determined as 264%.
Regarding `Cc1c(F)cccc1-c1nc(NS(=O)(=O)c2cccc(N3CCCC4(CC4C(=O)O)C3)n2)ccc1C(F)(F)F` (stereo not shown) [Example 440, 5-(6-(N-(6-(3-fluoro-2-methylphenyl)-5-(trifluoromethyl)pyridin-2-yl)sulfamoyl)pyridin-2-yl)-5-azaspiro[2.5]octane-1-carboxylic Acid], the pEC50 is 5.60 and the Emax came out at 274%.
For `Cc1ccccc1-c1nc(NS(=O)(=O)c2cccc(N3CCCC4(CC4C(=O)O)C3)n2)ccc1C(F)(F)F` (stereo not shown) [Example 441, 5-(6-(N-(6-(o-tolyl)-5-(trifluoromethyl)pyridin-2-yl)sulfamoyl)pyridin-2-yl)-5-azaspiro[2.5]octane-1-carboxylic Acid] the same measures were 5.64 and 299%.
On the same counts, the results for `CC1(C(=O)O)CCCN(c2cccc(S(=O)(=O)Nc3ccc(C(F)(F)F)c(-c4ccccc4CO)n3)n2)C1` (stereo not shown) [Example 444, 1-(6-(N-(6-(2-(hydroxymethyl)phenyl)-5-(trifluoromethyl)pyridin-2-yl)sulfamoyl)pyridin-2-yl)-3-methylpiperidine-3-carboxylic Acid] are 5.39 and 47.5%.
For `CC1(C(=O)O)CCCN(c2cccc(S(=O)(=O)Nc3ccc(C(F)(F)F)c(-c4ccccc4CCO)n3)n2)C1` (stereo not shown) [Example 445, 1-(6-(N-(6-(2-(2-hydroxyethyl)phenyl)-5-(trifluoromethyl)pyridin-2-yl)sulfamoyl)pyridin-2-yl)-3-methylpiperidine-3-carboxylic Acid] the same measures were 5.57 and 94.1%.
Take `Cc1ccccc1-c1nc(NS(=O)(=O)c2cccc(N3CCC4(CC3)CC(C(=O)O)C4)n2)ccc1C(F)(F)F` [Example 446, 7-(6-(N-(6-(o-tolyl)-5-(trifluoromethyl)pyridin-2-yl)sulfamoyl)pyridin-2-yl)-7-azaspiro[3.5]nonane-2-carboxylic Acid]: the pEC50 is 5.67 and the Emax turned out to be 278%.
Consider `Cc1ccccc1-c1nc(NS(=O)(=O)c2cccc(N3CCC[C@@](C)(C(=O)O)C3)n2)ccc1Cl` [Example 447, (R)-1-(6-(N-(5-chloro-6-(o-tolyl)pyridin-2-yl)sulfamoyl)pyridin-2-yl)-3-methylpiperidine-3-carboxylic Acid], for which the pEC50 was 5.62.
Same read-out and setting: then `Cc1cccc(C)c1-c1nc(NS(=O)(=O)c2cccc(N3CCC[C@@](C)(C(=O)O)C3)n2)ccc1Cl` [Example 448, (R)-1-(6-(N-(5-chloro-6-(2,6-dimethylphenyl)pyridin-2-yl)sulfamoyl)pyridin-2-yl)-3-methylpiperidine-3-carboxylic Acid], with 5.83; and `COc1ccc(Cl)c(-c2nc(NS(=O)(=O)c3cccc(N4CCC[C@@H](C(=O)O)C4)n3)ccc2C(F)(F)F)c1` [Example 449, (R)-1-(6-(N-(6-(2-chloro-5-methoxyphenyl)-5-(trifluoromethyl)pyridin-2-yl)sulfamoyl)pyridin-2-yl)piperidine-3-carboxylic Acid], with 5.63.
